From ChEMBL document CHEMBL1201862, “PubChem BioAssay data set” (2004)
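48-hour exposure; five concentrations; linearly interpolated endpoints. GI50: concentration for 50% inhibition of growth.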 Active and inactive are the calls of the source. Rule as the data show it: active = GI50 up to about 1.1 µM and inactive = higher.

Columns and labels:
Test in all cases: growth of human tumour cells (NCI), 48 h
[1] = tested on: OVCAR-8
[2] = tested on: MDA-MB-231
[3] = tested on: KM12
[4] = tested on: PC-3
[5] = tested on: SF-295
[6] = tested on: NCI-H226
[7] = tested on: SF-539
[8] = tested on: 786-0
[9] = tested on: COLO 205
[10] = tested on: NCI-H23
[11] = tested on: NCI-H522
[12] = tested on: HOP-62
[13] = tested on: MOLT-4
[14] = tested on: M14
[15] = tested on: Hs-578T
[16] = tested on: RPMI-8226
[17] = tested on: OVCAR-3
[18] = tested on: CAKI-1
[19] = tested on: SNB-19
[20] = tested on: TK-10
[21] = tested on: A549
[22] = tested on: MDA-N
[23] = tested on: A498
[24] = tested on: SF-268
[25] = tested on: T47D
[26] = tested on: SK-MEL-2
[27] = tested on: IGROV-1
[28] = tested on: RXF 393
[29] = tested on: SK-MEL-28
[30] = tested on: Malme-3M
[31] = tested on: NCI-H460
[32] = tested on: MCF7
[33] = tested on: HCT-15
[34] = tested on: HCC 2998
[35] = tested on: BT-549
[36] = tested on: ACHN
[37] = tested on: U-251
[38] = tested on: NCI/ADR-RES
[39] = tested on: HCT-116
[40] = tested on: SN12C
[41] = tested on: OVCAR-4
[42] = tested on: UACC-257
[43] = tested on: CCRF-CEM
[44] = tested on: OVCAR-5
[45] = tested on: HT-29
[46] = tested on: UACC-62
[47] = tested on: K562
[48] = tested on: UO-31
[49] = tested on: HOP-92
[50] = tested on: LOX IMVI
[51] = tested on: SR
[52] = tested on: DU-145
[53] = tested on: SW-620
[54] = tested on: SK-MEL-5
[55] = tested on: MDA-MB-435
[56] = tested on: EKVX
[57] = tested on: HL-60
[58] = tested on: SNB-75
[59] = tested on: SK-OV-3

Measured: GI50

O=S(=O)(N/C(=N\O)Nc1ccc(Cl)cc1)c1cc(S(=O)(=O)c2ccccc2)cs1
inactive: [1] 15.8 µM | [2] 20.3 µM | [3] 22.2 µM | [4] 15 µM | [5] 15.8 µM | [6] 28.6 µM | [7] 14.3 µM | [8] 15.7 µM | [9] 18.7 µM | [10] 17.9 µM | [11] 10.6 µM | [12] 17.5 µM | [13] 6.87 µM | [14] 15.1 µM | [15] 13.6 µM | [16] 7.87 µM | [17] 13.5 µM | [18] 16.6 µM | [19] 17.9 µM | [20] 19.2 µM | [21] 24 µM | [22] 15.8 µM | [23] 13.8 µM | [24] 11.5 µM | [25] 11.6 µM | [26] 18.7 µM | [27] 17.9 µM | [28] 16.3 µM | [29] 16 µM | [30] 14.2 µM | [31] 17.7 µM | [32] 17.3 µM | [34] 13.4 µM | [35] 15.5 µM | [36] 16.1 µM | [37] 13.7 µM | [38] 33.2 µM | [39] 13.6 µM | [40] 15.2 µM | [41] 12.9 µM | [42] 15.9 µM | [43] 11.2 µM | [44] 16.5 µM | [45] 21 µM | [46] 14.8 µM | [47] 10.4 µM | [48] 14.3 µM | [49] 9.62 µM | [50] 15.5 µM | [51] 6.21 µM | [52] 18 µM | [53] 19.8 µM | [54] 9.08 µM | [55] 13.8 µM | [56] 16.3 µM | [57] 2.81 µM
18.8 µM: [33]

c1ccc(C2C3=C(CCCC3)Nc3nc4cc5ccccc5cc4n32)cc1 (centres undefined)
inactive: [1] > 100 µM | [58] > 100 µM | [2] > 100 µM | [3] > 100 µM | [4] > 100 µM | [5] > 100 µM | [6] > 100 µM | [7] > 100 µM | [8] > 100 µM | [9] > 100 µM | [10] > 100 µM | [11] > 100 µM | [13] > 100 µM | [14] > 100 µM | [15] > 100 µM | [16] > 100 µM | [59] > 100 µM | [17] > 100 µM | [18] > 100 µM | [19] > 100 µM | [21] > 100 µM | [22] > 100 µM | [23] > 100 µM | [24] > 100 µM | [25] > 100 µM | [26] > 100 µM | [27] > 100 µM | [28] > 100 µM | [29] > 100 µM | [30] > 100 µM | [31] > 100 µM | [32] > 100 µM | [34] > 100 µM | [35] > 100 µM | [36] > 100 µM | [37] > 100 µM | [38] > 100 µM | [39] > 100 µM | [40] > 100 µM | [41] > 100 µM | [42] > 100 µM | [43] > 100 µM | [44] > 100 µM | [45] > 100 µM | [46] > 100 µM | [47] > 100 µM | [48] > 100 µM | [49] > 100 µM | [50] > 100 µM | [51] > 100 µM | [52] > 100 µM | [53] > 100 µM | [54] > 100 µM | [55] > 100 µM | [56] > 100 µM | [57] > 100 µM
> 100 µM: [33]
